# Test system: Lassa virus
# Experiment: Antiviral activity against LASV infected in human A549 cells
# Assay type: functional, organism-based, Mammarenavirus lassaense
# Conditions: Mammarenavirus lassaense, A549; read-out: IC50; call rule not given here
row,Compound,IC50 [µM]
1,O=C(c1cc2ccccc2o1)N1CC(=O)N(Cc2ccc(Cl)cc2)C(Cc2ccccc2)C1 (configuration not stated),0.8
2,Cc1ccc(CN2C(=O)CN(C(=O)c3cc4ccccc4o3)CC2Cc2ccccc2)cc1 (racemic),0.8
3,Cc1ccc(CN2C(=O)CN(C(=O)c3cc4ccccc4o3)C[C@@H]2Cc2ccccc2)cc1,0.2
4,CCC1CN(C(=O)c2cc3ccccc3o2)CC(=O)N1Cc1cccc(C(F)(F)F)c1 (configuration not stated),1.6
5,COc1ccc(CN2C(=O)CN(C(=O)c3cc4ccccc4[nH]3)CC2Cc2ccccc2)cc1 (configuration not stated),1.2
6,COc1ccc(CN2C(=O)CN(C(=O)c3cc4ccccc4o3)CC2CCc2ccccc2)cc1 (configuration not stated),1
7,Cc1ccc(CN2CCN(C(=O)c3cc4ccccc4o3)C[C@@H]2Cc2ccccc2)cc1,3.1
8,Cc1ccc(CN2C(=O)CN(C(=O)c3ccc(C)cc3)CC2CCc2ccccc2)cc1 (configuration not stated),1.2
9,CCC1CN(C(=O)c2cc3ccccc3[nH]2)CC(=O)N1Cc1cccc(C(F)(F)F)c1 (configuration not stated),2.4
10,O=C(c1cc2ccccc2s1)N1CC(=O)N(Cc2ccc(Cl)cc2)C(Cc2ccccc2)C1 (configuration not stated),2.1
11,O=C(c1cc2ccccc2o1)N1CC(=O)N(Cc2cccc(C(F)(F)F)c2)C(Cc2ccccc2)C1 (configuration not stated),1.8
12,COc1ccc(C(=O)N2CC(=O)N(Cc3ccc(C)cc3)C(CCc3ccccc3)C2)cc1 (configuration not stated),0.4
13,COc1ccc(CN2C(=O)CN(C(=O)c3cc4ccccc4[nH]3)CC2CCc2ccccc2)cc1 (configuration not stated),1.7
14,Cc1ccc(CN2C(=O)CN(C(=O)c3cc4ccccc4o3)C[C@H]2Cc2ccccc2)cc1,3
15,COc1ccc(CN2C(=O)CN(C(=O)c3cc4ccccc4o3)CC2Cc2ccccc2)cc1 (configuration not stated),0.6
16,COc1ccc(CN2C(=O)CN(C(=O)c3cc4ccccc4s3)CC2CCc2ccccc2)cc1 (configuration not stated),0.5
17,Cc1ccc(CN2C(=O)CN(Cc3cc4ccccc4o3)C[C@@H]2Cc2ccccc2)cc1,10

# Same assay, conditions: a549
row,Compound,IC50
1,O=C(c1cc2ccccc2o1)N1CCN[C@@H](Cc2ccccc2)C1,Not Active
2,Cc1ccc(CN2C(=O)CNC[C@@H]2Cc2ccccc2)cc1,Not Active

# Test system: not listed separately
# Experiment: Inhibition of JUNV envelope glycoprotein-mediated late endosomal pH-dependent membrane fusion by cell-cell fusion reporter assay
# Conditions: Mammarenavirus juninense
row,Compound,IC50 [µM]
1,Cc1ccc(CN2C(=O)CN(C(=O)c3cc4ccccc4o3)CC2Cc2ccccc2)cc1 (racemic),0.2
2,COc1ccc(CN2C(=O)CN(C(=O)c3cc4ccccc4o3)CC2CCc2ccccc2)cc1 (configuration not stated),0.2
3,COc1ccc(CN2C(=O)CN(C(=O)c3cc4ccccc4s3)CC2CCc2ccccc2)cc1 (configuration not stated),0.2
